Experimental data from US6808877B2, “Ligands for FPR class receptors that induce a host immune response to a pathogen or inhibit HIV infection” (priority 2000, dated 2004).
“Also recorded” adds a separate entry of the source.

Legend:
[1] = tested on: CCR5; test: CCR5 serine phosphorylation in monocytes (anti-phosphoserine IP, anti-CCR5 immunoblot); assay type: cell-based, human; conditions: human monocytes; for serine phosphorylation of CCR5: 37° C.
Procedure: Monocytes were isolated by counter-flow elutriation from the peripheral blood of normal donors (NIH Clinical Center, Transfusion Medicine Department, Bethesda, Md.) and enriched for mononuclear cells by using counter-flow elutriation. The purity of the cell preparations was examined by morphology after cytospin, and was >90%. The cells were stimulated with different concentrations of chemokines for indicated time periods at 37° C. and lysed for 20 min on ice with periodic mixing in lysis buffer (1% Triton X-100, 20 mM, Tris-HCl pH 8.0, 137 mM NaCl, 15% glycerol, 5 mM EDTA) containing phosphatase and protease inhibitors (1 mM phenylmethylsulfonyl fluoride, 5 μg/ml aprotinin, 5 μg/ml leupeptin, 1 mM sodium orthovanadate, 1 mM EGTA). Cell lysates were precleared with 30 µl of washed Protein-A sepherose beads (Pharmacia Biotech. Piscataway, N.J.), 1 μg of polyclonal anti-phospho-serine antibody (Zymed Laboratory Inc. South San Francisco, Calif.) was added to 200 μg cell lysates diluted with 2×immunoprecipitation (IP) buffer (1×buffer contains 1%Triton X-100, 10 mM Tris-HCl pH 7.4, 137 mM NaCl, 1 mM EDTA, 1 mM EGTA, 0.2 mM sodium orthovanadate, 0.2 mM PMSF, 0.5% NP-40). The reaction mixture was incubated at 4° C. overnight under constant rocking. The immune complex was captured by adding 50 μl of washed Protein-A sepharose beads (25 μl packed beads) and incubation of the reaction mixture at 4° C. for additional 2 hours. The beads were spun down (10 seconds at 14,000 rpm), the pellets were washed 3 times with ice-cold IP buffer, resuspended in 30 μl of 2×Laemmli sample buffer (126 mM Tris-HCl, 20% Glycerol, 4% SDS, 0.005% bromophenol blue with or without addition of 1% 2-mercaptoethanol, Novex, San Diego, Calif.) and boiled for 5 min to elute the immune complex. After electrophoresis on 4-12% SDS-PAGE precast gel (Novex), the proteins were transferred to Immobilon P membranes (Millipore, Bedford, Mass.). The membranes were blocked in freshly prepared PBS containing 3% dry milk 2 h, then were incubated with 1 μg/ml of polyclonal anti-CCR5 antibody (Millenium Biotechnology, Ramona, Calif.) overnight at 4° C. followed by washing 3 times with PBS containing 0.05% Tween 20. The membranes were incubated with a horse radish-peroxidase conjugated goat anti-rabbit IgG (1:5000) (Sigma, St. Louis, Mo.) in PBS containing 3% dry milk for 1 hour at room temperature with agitation. After washing 3 times with PBS-0.05% Tween 20, the membranes were incubated with Super Signal Chemiluminescent Substrate Stable Peroxide Solution (Pierce, Rockford, Ill.) for 1 min, and exposed to BIOMAX-MR film (Eastman Kodak Company, Rochester, N.Y.).
Monocytes stimulated with different concentrations of stimulants for indicated time periods at 37° C. were lysed for 20 min on ice with periodic mixing in lysis buffer [1% Triton X-100, 20 mM Tris-HCl (pH 8.0), 137 mM NaCl, 15% glycerol, 5 mM EDTA] containing phosphatase and protease inhibitors (1 mM phenylmethylsulfonyl fluoride, 5 μg/ml aprotinin, 5 μg/ml leupeptin, 1 mM sodium orthovanadate, 1 mM EGTA). Cell lysates were precleaned with 30 μl of washed Protein A Sepharose beads (15 μl packed beads) at 4° C. for 1 hour and 1 μg of polyclonal anti-phosphoserine antibody was added to 200 μg cell lysates diluted with 2×immunoprecipitation (IP) buffer [1×: 1% Triton X-100, 10 mM Tris-HCl (pH 7.4), 137 mM NaCl, 1 mM EDTA, 1 mM EGTA, 0.2 mM […], 0.2 mM PMSF, 0.5% NP-40]. The reaction mixture was incubated at 4° C. overnight under constant rocking. The immunecomplex was captured by adding 50 μl of washed Protein A sepharose beads (25 μl packed beads) and incubating the reaction mixture at 4° C. for an additional 2 hours. […]

[2] = tested on: monocytes; test: Ca2+ mobilization of monocytes in response to chemokines after preincubation (heterologous desensitization); assay type: cell-based, human; conditions: 60 min, 37° C.
Procedure: Calcium mobilization was measured by incubating monocytes (2×10^7/ml) in loading medium (DMEM, 10% FCS) with 5 μM Fura-2 AM (Molecular Probes, Eugene, Oreg.) for 30 min at room temperature in the dark. The dye-loaded cells were washed 3 times and resuspended in saline buffer (138 mM NaCl, 6 mM KCl, 1 mM CaCl2, 10 mM Hepes pH 7.4, 5 mM glucose, 0.1% BSA). The cells were then transferred into quartz cuvettes (2×10^6 cells in 2 ml) which were placed in a luminescence spectrometer (LS-50B, Perkin-Elmer, Beaconsfield, UK). Stimulants at different concentrations were added in a volume of 20 μl to each cuvette at the indicated time points. The ratio of fluorescence at 340 and 380 nm was calculated using a FL-WinLab program (Perkin Elmer). To examine the effect of fMLP, monocytes were preincubated with 10^−6 M fMLP or with medium alone for 60 min at 37° C. The cells were thoroughly washed and then were stained with Fura-2 for the calcium mobilization desensitization. The results are representative of at least three experiments performed.
Calcium mobilization was measured by incubating 2×10^7/ml cells in loading medium (DMEM, 10% FBS) with 5 μM Fura-2 AM (Molecular Probes, Eugene, Oreg.) for 30 min at room temperature in the dark. The dye-loaded cells were washed 3 times with loading medium and resuspended in saline buffer [138 mM NaCl, 6 mM KCl, 1 mM CaCl2, 10 mM HEPES (pH 7.4), 5 mM Glucose, 0.1% BSA] at a concentration of 1×10^6/ml. The cells were then transferred into quartz cuvettes (2 ml) which were placed in a luminescence spectrometer (LS-50B, Perkin-Elmer, Beaconsfield, England). Stimulants at different concentrations were added in a volume of 20 μl to each cuvette at the indicated time points. The ratio of fluorescence at 340 and 380 nm wavelength was calculated using a FL WinLab program (Perkin-Elmer).

Row | Compound | time to increase in CCR5 phosphorylation after stimulation [1] [min] | serine phosphorylation of CCR5 [1] | Ca2+ flux in response to RANTES and MIP-1α after pretreatment ([2]; fMLP 10^−6 M) | time of maximal CCR5 phosphorylation [1] [min] | cell response (Ca2+) to MCP-1 and fMLP after preincubation ([2]; 1.5 μM) | cell response (Ca2+) to RANTES and SDF-1α after preincubation ([2]; 1.5 μM)
1 | CSCC[C@H](NC=O)C(=O)N[C@@H](CC(C)C)C(=O)N[C@@H](Cc1ccccc1)C(=O)O [fMLP, N-formyl-methionyl-leucyl-phenylalanine] | ≤ 1 | increased level of CCR5 phosphorylation; also recorded: induced CCR5 phosphorylation | reduced Ca^2+ flux |  |  | 
2 | TRPNYNKRKRIHIGPGRAFYTTKNIIGTIRQAH-NH2 [V3 peptide] |  | induced significant serine phosphorylation of CCR5 |  | 15 | minimally affected | significantly reduced
